Values after ≈ are worked out from the molar mass of the structure shown.
What was measured:
Type in all cases: functional
[1] = tested on: Candida albicans; assay: Antifungal activity against Candida albicans assessed as growth inhibition by serial plate dilution method
[2] = tested on: Bacillus cereus; assay: Antibacterial activity against Bacillus cereus assessed as growth inhibition by serial plate dilution method
[3] = tested on: Pseudomonas aeruginosa; assay: Antibacterial activity against Pseudomonas aeruginosa ATCC 27853 assessed as growth inhibition by serial plate dilution method
[4] = tested on: Staphylococcus aureus; assay: Antibacterial activity against Staphylococcus aureus ATCC 25923 assessed as growth inhibition by serial plate dilution method
[5] = tested on: Escherichia coli; assay: Antibacterial activity against Escherichia coli ATCC 25922 assessed as growth inhibition by serial plate dilution method
[6] = tested on: Radical scavenging activity; assay: Antioxidant activity assessed as inhibition of DPPH radical generation at 800 ug/mL after 20 min by spectrophotometric analysis relative to control
[7] = tested on: Radical scavenging activity; assay: Antioxidant activity assessed as inhibition of DPPH radical generation at 400 ug/mL after 20 min by spectrophotometric analysis relative to control
[8] = tested on: Radical scavenging activity; assay: Antioxidant activity assessed as inhibition of DPPH radical generation at 200 ug/mL after 20 min by spectrophotometric analysis relative to control
[9] = tested on: Mus musculus; assay: Analgesic activity in Mus musculus […] albino (mouse) assessed as time taken to tail withdrawl at 100 mg/kg, po administered through intragastric tube after 180 min by tail flick test (reference value: 1.363 +/- 0.1297 secs)
[10] = tested on: Mus musculus; assay: Analgesic activity in Mus musculus […] albino (mouse) assessed as time taken to tail withdrawl at 100 mg/kg, po administered through intragastric tube after 120 min by tail flick test (reference value: 1.363 +/- 0.1297 secs)
[11] = tested on: Mus musculus; assay: Analgesic activity in Mus musculus […] albino (mouse) assessed as time taken to tail withdrawl at 100 mg/kg, po administered through intragastric tube after 60 min by tail flick test (reference value: 1.363 +/- 0.1297 secs)
[12] = tested on: Rattus norvegicus; assay: Anti-inflammatory activity in Rattus norvegicus (rat) assessed as decrease in carrageenan-induced paw edema at 100 mg/kg, po administered 30 min prior to carrageenan challenge measured after 180 min (reference value: 2.275 +/- 0.1181 mm)
[13] = tested on: Rattus norvegicus; assay: Anti-inflammatory activity in Rattus norvegicus (rat) assessed as decrease in carrageenan-induced paw edema at 100 mg/kg, po administered 30 min prior to carrageenan challenge measured after 120 min (reference value: 2.375 +/- 0.1436 mm)
[14] = tested on: Rattus norvegicus; assay: Anti-inflammatory activity in Rattus norvegicus (rat) assessed as decrease in carrageenan-induced paw edema at 100 mg/kg, po administered 30 min prior to carrageenan challenge measured after 60 min (reference value: 2.175 +/- 0.1797 mm)

SMILES | MIC [1] | MIC [2] | MIC [3] | MIC [4] | MIC [5] | inhibition [6] | inhibition [7] | inhibition [8] | Time [9] | Time [10] | Time [11] | Activity [12] | Activity [13] | Activity [14]
COc1ccc(/C=N\NC(=O)c2cc(OC)ccc2Br)c(OC)c1 | 6.25 µg/mL (≈ 15.9 µM) | 12.5 µg/mL (≈ 31.8 µM) | 6.25 µg/mL (≈ 15.9 µM) | 12.5 µg/mL (≈ 31.8 µM) | 6.25 µg/mL (≈ 15.9 µM) | – | – | – | – | – | – | – | – | –
COc1ccc(Br)c(C(=O)N/N=C\c2cccc(Cl)c2)c1 | 6.25 µg/mL (≈ 17 µM) | 12.5 µg/mL (≈ 34 µM) | 6.25 µg/mL (≈ 17 µM) | 25 µg/mL (≈ 68 µM) | 12.5 µg/mL (≈ 34 µM) | – | – | – | – | – | – | – | – | –
COc1ccc(Br)c(C(=O)N/N=C\c2ccc(C)cc2)c1 | 6.25 µg/mL (≈ 18 µM) | 12.5 µg/mL (≈ 36 µM) | 12.5 µg/mL (≈ 36 µM) | 12.5 µg/mL (≈ 36 µM) | 6.25 µg/mL (≈ 18 µM) | – | – | – | – | – | – | – | – | –
COc1ccc(Br)c(C(=O)N/N=C\c2ccc(Cl)cc2)c1 | 3.12 µg/mL (≈ 8.5 µM) | 12.5 µg/mL (≈ 34 µM) | 3.12 µg/mL (≈ 8.5 µM) | 6.25 µg/mL (≈ 17 µM) | 6.25 µg/mL (≈ 17 µM) | – | – | – | – | – | – | – | – | –
O=C1O[C@H]([C@@H](O)CO)C(O)=C1O | – | – | – | – | – | 96% | 95% | 87.6% | – | – | – | – | – | –
COc1ccc(Br)c(C(=O)NN2C(=O)CSC2c2ccc(O)cc2)c1 (stereo not given) | 6.25 µg/mL (≈ 14.8 µM) | 12.5 µg/mL (≈ 29.5 µM) | 6.25 µg/mL (≈ 14.8 µM) | 12.5 µg/mL (≈ 29.5 µM) | 6.25 µg/mL (≈ 14.8 µM) | 58.3% | 58% | 57.8% | 2.532 s | 2.775 s | 2.675 s | 2.048 mm | 1.899 mm | 1.89 mm
COc1ccc(Br)c(C(=O)N/N=C\c2ccccc2Cl)c1 | 6.25 µg/mL (≈ 17 µM) | 6.25 µg/mL (≈ 17 µM) | 6.25 µg/mL (≈ 17 µM) | 12.5 µg/mL (≈ 34 µM) | 6.25 µg/mL (≈ 17 µM) | – | – | – | – | – | – | – | – | –
COc1ccc(/C=N\NC(=O)c2cc(OC)ccc2Br)cc1 | 6.25 µg/mL (≈ 17.2 µM) | 12.5 µg/mL (≈ 34.4 µM) | 3.12 µg/mL (≈ 8.6 µM) | 12.5 µg/mL (≈ 34.4 µM) | 12.5 µg/mL (≈ 34.4 µM) | – | – | – | – | – | – | – | – | –
CC1(C)S[C@@H]2[C@H](NC(=O)Cc3ccccc3)C(=O)N2[C@H]1C(=O)O [PENICILLIN G] | – | 0.12 µg/mL (≈ 0.359 µM) | 0.12 µg/mL (≈ 0.359 µM) | 0.12 µg/mL (≈ 0.359 µM) | 0.12 µg/mL (≈ 0.359 µM) | – | – | – | – | – | – | – | – | –
COc1ccc(Br)c(C(=O)NN2C(=O)CSC2c2cccc3cc(OC)ccc23)c1 (stereo not given) | 6.25 µg/mL (≈ 12.8 µM) | 12.5 µg/mL (≈ 25.6 µM) | 6.25 µg/mL (≈ 12.8 µM) | 12.5 µg/mL (≈ 25.6 µM) | 6.25 µg/mL (≈ 12.8 µM) | 58.3% | 52.4% | 38.3% | 2.53 s | 2.214 s | 1.954 s | 1.98 mm | 1.89 mm | 1.515 mm
CC(C)=CCN1CC[C@]2(C)c3cc(O)ccc3C[C@H]1[C@H]2C [(+)-PENTAZOCINE] | – | – | – | – | – | – | – | – | 7.025 s | 6.863 s | 7.075 s | – | – | –
COc1ccc(Br)c(C(=O)NN2C(=O)CSC2c2ccc(F)cc2)c1 (stereo not given) | 6.25 µg/mL (≈ 14.7 µM) | 6.25 µg/mL (≈ 14.7 µM) | 12.5 µg/mL (≈ 29.4 µM) | 12.5 µg/mL (≈ 29.4 µM) | 6.25 µg/mL (≈ 14.7 µM) | 57.1% | 51% | 37.8% | 3.241 s | 3.421 s | 2.923 s | 2.2 mm | 2.05 mm | 2 mm
OC(Cn1cncn1)(Cn1cncn1)c1ccc(F)cc1F [FLUCONAZOLE] | 8 µg/mL (≈ 26.1 µM) | – | – | – | – | – | – | – | – | – | – | – | – | –
COc1ccc(Br)c(C(=O)NN2C(=O)CSC2c2ccc(Cl)cc2)c1 (stereo not given) | 12.5 µg/mL (≈ 28.3 µM) | 12.5 µg/mL (≈ 28.3 µM) | 3.12 µg/mL (≈ 7.07 µM) | 12.5 µg/mL (≈ 28.3 µM) | 12.5 µg/mL (≈ 28.3 µM) | 58.2% | 58.2% | 57.5% | 2.463 s | 2.788 s | 2.613 s | 2.25 mm | 2.25 mm | 2.15 mm
COc1ccc(Br)c(C(=O)NN2C(=O)CSC2c2ccccc2Cl)c1 (stereo not given) | 6.25 µg/mL (≈ 14.1 µM) | 6.25 µg/mL (≈ 14.1 µM) | 3.12 µg/mL (≈ 7.07 µM) | 6.25 µg/mL (≈ 14.1 µM) | 12.5 µg/mL (≈ 28.3 µM) | 72.9% | 65.9% | 59.3% | 2.5 s | 2.125 s | 1.963 s | 2.075 mm | 1.975 mm | 1.85 mm
COc1ccc(Br)c(C(=O)NN2C(=O)CSC2C2=C(Cl)c3ccccc3C(c3ccc(Cl)c(Cl)c3)C2)c1 (stereo not given) | 6.25 µg/mL (≈ 9.78 µM) | 12.5 µg/mL (≈ 19.6 µM) | 6.25 µg/mL (≈ 9.78 µM) | 6.25 µg/mL (≈ 9.78 µM) | 12.5 µg/mL (≈ 19.6 µM) | – | – | – | 2.338 s | 3.388 s | 3.463 s | 2.025 mm | 2.175 mm | 2.025 mm
COc1ccc(Br)c(C(=O)N/N=C\c2ccc(O)c(OC)c2)c1 | 12.5 µg/mL (≈ 33 µM) | 6.25 µg/mL (≈ 16.5 µM) | 12.5 µg/mL (≈ 33 µM) | 12.5 µg/mL (≈ 33 µM) | 6.25 µg/mL (≈ 16.5 µM) | – | – | – | – | – | – | – | – | –
COc1ccc(Br)c(C(=O)N/N=C\c2ccc(F)cc2)c1 | 12.5 µg/mL (≈ 35.6 µM) | 6.25 µg/mL (≈ 17.8 µM) | 6.25 µg/mL (≈ 17.8 µM) | 6.25 µg/mL (≈ 17.8 µM) | 12.5 µg/mL (≈ 35.6 µM) | – | – | – | – | – | – | – | – | –
COc1ccc(Br)c(C(=O)N/N=C\c2ccc(O)cc2)c1 | 3.12 µg/mL (≈ 8.95 µM) | 6.25 µg/mL (≈ 17.9 µM) | 6.25 µg/mL (≈ 17.9 µM) | 12.5 µg/mL (≈ 35.8 µM) | 12.5 µg/mL (≈ 35.8 µM) | – | – | – | – | – | – | – | – | –
COc1ccc(Br)c(C(=O)N/N=C/C2=C(Cl)c3ccccc3C(c3ccc(Cl)c(Cl)c3)C2)c1 (stereo not given) | 6.25 µg/mL (≈ 11.1 µM) | 12.5 µg/mL (≈ 22.1 µM) | 6.25 µg/mL (≈ 11.1 µM) | 12.5 µg/mL (≈ 22.1 µM) | 12.5 µg/mL (≈ 22.1 µM) | – | – | – | – | – | – | – | – | –
O=C(O)Cc1ccccc1Nc1c(Cl)cccc1Cl [DICLOFENAC] | – | – | – | – | – | – | – | – | – | – | – | 0.625 mm | 0.625 mm | 0.6 mm
COc1ccc(Br)c(C(=O)N/N=C\c2cccnc2)c1 | 3.12 µg/mL (≈ 9.35 µM) | 6.25 µg/mL (≈ 18.7 µM) | 6.25 µg/mL (≈ 18.7 µM) | 6.25 µg/mL (≈ 18.7 µM) | 6.25 µg/mL (≈ 18.7 µM) | – | – | – | – | – | – | – | – | –
COc1ccc(Br)c(C(=O)N/N=C\c2ccccc2O)c1 | 6.25 µg/mL (≈ 17.9 µM) | 12.5 µg/mL (≈ 35.8 µM) | 6.25 µg/mL (≈ 17.9 µM) | 12.5 µg/mL (≈ 35.8 µM) | 6.25 µg/mL (≈ 17.9 µM) | – | – | – | – | – | – | – | – | –
COc1ccc(Br)c(C(=O)N/N=C\c2ccc([N+](=O)[O-])cc2)c1 | 3.12 µg/mL (≈ 8.26 µM) | 6.25 µg/mL (≈ 16.5 µM) | 6.25 µg/mL (≈ 16.5 µM) | 12.5 µg/mL (≈ 33.1 µM) | 6.25 µg/mL (≈ 16.5 µM) | – | – | – | – | – | – | – | – | –
COc1ccc(Br)c(C(=O)N/N=C\c2ccccc2OC)c1 | 6.25 µg/mL (≈ 17.2 µM) | 12.5 µg/mL (≈ 34.4 µM) | 3.12 µg/mL (≈ 8.6 µM) | 6.25 µg/mL (≈ 17.2 µM) | 12.5 µg/mL (≈ 34.4 µM) | – | – | – | – | – | – | – | – | –
COc1ccc(Br)c(C(=O)N/N=C\c2ccc(-c3ccccc3)cc2)c1 | 12.5 µg/mL (≈ 30.5 µM) | 25 µg/mL (≈ 61.1 µM) | 6.25 µg/mL (≈ 15.3 µM) | 25 µg/mL (≈ 61.1 µM) | 25 µg/mL (≈ 61.1 µM) | – | – | – | – | – | – | – | – | –
COc1ccc(Br)c(C(=O)N/N=C\c2cccc3cc(OC)ccc23)c1 | 12.5 µg/mL (≈ 30.2 µM) | 6.25 µg/mL (≈ 15.1 µM) | 12.5 µg/mL (≈ 30.2 µM) | 6.25 µg/mL (≈ 15.1 µM) | 12.5 µg/mL (≈ 30.2 µM) | – | – | – | – | – | – | – | – | –

Reference: ChEMBL document CHEMBL3046513, “Synthesis, characterization, and biological evaluation of some N-aryl hydrazones and their 2,3-disubstituted-4-thiazolidinone derivatives” (Med Chem Res, 2013)
